Results on four compounds are retold here after ChEMBL document CHEMBL1944630, “Indomethacin Analogues that Enhance Doxorubicin Cytotoxicity in Multidrug Resistant Cells without Cox Inhibitory Activity” (ACS Med Chem Lett, 2011).

pIC50: −log10 of the molar value. Activity calls are given as the source filed them. No cut-off for these calls is given here.

The target of data set [1] is T1, Prostaglandin G/H synthase 1 (Homo sapiens, UniProt P23219). Kind of data set: Inhibition of COX1.
Data set [2] deals with T1, Prostaglandin G/H synthase 1. Briefly: Inhibition of COX1 at 100 uM.
Data set [3] deals with T2, Prostaglandin G/H synthase 2 (Homo sapiens, UniProt P35354).
T2 sequence (P35354 whole entry): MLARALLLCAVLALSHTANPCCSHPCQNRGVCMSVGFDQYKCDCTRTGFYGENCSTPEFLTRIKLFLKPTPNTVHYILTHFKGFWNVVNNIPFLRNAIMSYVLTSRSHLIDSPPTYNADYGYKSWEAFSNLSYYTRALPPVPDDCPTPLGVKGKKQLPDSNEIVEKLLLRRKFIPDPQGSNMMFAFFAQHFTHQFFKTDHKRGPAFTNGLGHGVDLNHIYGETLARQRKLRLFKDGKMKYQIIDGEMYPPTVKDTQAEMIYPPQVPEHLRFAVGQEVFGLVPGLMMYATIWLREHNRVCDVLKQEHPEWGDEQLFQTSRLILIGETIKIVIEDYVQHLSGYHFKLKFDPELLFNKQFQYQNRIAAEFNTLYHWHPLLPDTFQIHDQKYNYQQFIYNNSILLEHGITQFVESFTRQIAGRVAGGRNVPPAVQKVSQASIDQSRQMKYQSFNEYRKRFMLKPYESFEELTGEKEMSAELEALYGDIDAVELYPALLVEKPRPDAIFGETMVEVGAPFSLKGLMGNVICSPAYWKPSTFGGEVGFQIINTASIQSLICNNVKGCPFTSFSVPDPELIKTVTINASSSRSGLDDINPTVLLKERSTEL
Briefly: Inhibition of COX2.

Data set [4] deals with T98G. Kind of data set: Cytotoxicity against multidrug-resistant human T98G cells expressing MRP-1 at 50 uM after 3 days by crystal violet staining analysis. It is filed as cell-based. The following applies: 72 h.
Data set [5] relates to T98G. Kind of data set: Potentiation of doxorubicin-induced cytotoxicity against multidrug-resistant human T98G cells expressing MRP-1 at 50 uM pretreated for 2 hrs prior addition of doxorubicin measured after 3 days by crystal violet staining analysis. The data set is classed as functional, cell-based.

T1 sequence (P23219 whole entry): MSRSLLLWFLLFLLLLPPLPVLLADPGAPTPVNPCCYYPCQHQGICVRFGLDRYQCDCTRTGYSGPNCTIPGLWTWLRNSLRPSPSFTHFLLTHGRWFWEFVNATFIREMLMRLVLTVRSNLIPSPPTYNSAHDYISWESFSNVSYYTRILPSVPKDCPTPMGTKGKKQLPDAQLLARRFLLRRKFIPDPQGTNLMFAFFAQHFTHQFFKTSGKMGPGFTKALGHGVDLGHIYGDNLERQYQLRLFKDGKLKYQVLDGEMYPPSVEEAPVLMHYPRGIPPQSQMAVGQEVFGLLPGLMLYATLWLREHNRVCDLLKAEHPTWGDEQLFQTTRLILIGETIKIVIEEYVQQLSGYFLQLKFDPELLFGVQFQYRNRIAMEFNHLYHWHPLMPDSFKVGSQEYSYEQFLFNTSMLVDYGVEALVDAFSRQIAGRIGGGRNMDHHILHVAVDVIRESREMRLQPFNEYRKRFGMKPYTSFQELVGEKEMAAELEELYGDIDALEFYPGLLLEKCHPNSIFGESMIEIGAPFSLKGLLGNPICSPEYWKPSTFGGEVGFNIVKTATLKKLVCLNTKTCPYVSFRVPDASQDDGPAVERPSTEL

As to `Cc1c(CC(=O)O)c2ccccc2n1C(=O)c1ccc(Cl)cc1`, the pIC50 in data set [1] is 8.00; in data set [3], 4.41. The same compound displayed an inhibition in data set [2] of 79%.
In turn, `CC(=O)Oc1ccccc1C(=O)O` displayed an inhibition in data set [2] of 38%.
As to `O=C(O)Cc1c(-c2ccccc2)n(C(=O)c2ccc(Cl)cc2)c2ccccc12`, the Activity entry in the data set with T98G [4] is “Non-toxic”. For the same compound, the pIC50 in data set [1] and in data set [3] was less than 3.40 each time. For the same compound, the outcome with T98G [5] was Active. In addition, the inhibition in data set [2] was less than 0%.
For `CCc1c(CC(=O)O)c2ccccc2n1C(=O)c1ccc(Cl)cc1`, in the data set with T98G [4], the Activity entry was “Non-toxic”. Moreover, the pIC50 in data set [1] and in data set [3] was less than 3.40 in each case. The result with T98G [5] was Active. The compound also showed an inhibition in data set [2] of less than 0%.
